Patent publication US8889727B2, “Topical antifungal agent” (Meiji Seika Pharma Co., Ltd., priority 2011, dated 2014)
Values after ≈ are worked out from the molar mass of the structure shown.

What was measured:
[1] = tested on: T. mentagrophytes ATCC18748; experiment: Measurement of antifungal activity (MIC, WST8 growth inhibition); type: cell-based; conditions: Trichophyton mentagrophytes, 72 h; 80% growth inhibition concentration; T. mentagrophytes ATCC18748, RPMI1640/MOPS, 28° C., 3 days
Description: (§1) The compounds for evaluation were dissolved in dimethyl sulfoxide (DMSO) and used. As the test medium, RPMI1640 medium containing 0.165 M 3-morpholino propane sulfonic acid (MOPS) was used. As the test strain, T. mentagrophytes ATCC18748 or T. rubrum ATCC10218 was used. 100 μL of the test strain each at a concentration of 1×10^4 conidia/mL was dispensed, mixed with compounds for evaluation on 96 well half area plate so that the concentration of DMSO becomes 1%, and cultured at 28° C. for 3 days (for T. mentagrophytes) or for 4 days (for T. rubrum). Then, 5 μL of Cell Counting Kit8 (WST8) was added and the absorbances at 450 nm and 595 nm was measured as background. Subsequently, they were incubated at 28° C. for 5 hours (for T. mentagrophytes) or overnight (for T. rubrum) to color, and again the absorbances at 450 nm and 595 nm was measured, and then calculated the growth inhibition percentages using the differences from the background, and 80% growth inhibition concentration was regarded as MIC (μg/ml). Measurement of antifungal activity was conducted by the following method. Compounds for evaluation were dissolved in dimethyl sulfoxide (DMSO) and used. As the test medium, RPMI1640 medium containing 0.165 M 3-morpholinopropane sulfonic acid (MOPS) was used. As the test strain, T. mentagrophytes ATCC18748 or T. rubrum ATCC10218 was used. 100 μL of the test strain was dispensed at a concentration of 1×10^4 conidia/mL, mixed with compounds for evaluation on 96 well half area plate so that the concentration of DMSO becomes 1%, and cultured at a culture temperature of 28° C. for 3 days (for T. mentagrophytes) or for 4 days (for T. rubrum). Then, 5 μL of Cell Counting Kit8 (WST8) was added and the absorbances at 450 nm and 595 nm was measured as background. Subsequently, they were incubated at 28° C. for 5 hours (for T. mentagrophytes) or overnight (for T. rubrum), and again measured the absorbances at 450 nm and 595 nm was measured, and then calculated the growth inhibition percentages using the differences from the background, and 80% growth inhibition concentration was regarded as MIC (μg/ml).

[2] = tested on: T. rubrum ATCC10218; experiment: as above; type: cell-based; conditions: Trichophyton rubrum, 96 h; 80% growth inhibition concentration; T. rubrum ATCC10218, RPMI1640/MOPS, 28° C., 4 days
Description: as §1

SMILES | MIC [1] [µg/mL] | MIC [2] [µg/mL] | inhibition of growth at 32 µg/mL [1] [%]
Cc1cc(C)n(-c2cccc(Cl)c2O)n1 [Example 12, 2-Chloro-6-(3,5-dimethyl-1H-pyrazol-1-yl)phenol] | 16 to 32 (≈ 71.9 to 144 µM) | > 64 | –
Cc1cc(C(F)(F)F)nn1-c1ccccc1O [Example 5, 2-(5-Methyl-3-trifluoromethyl-1H-pyrazol-1-yl)phenol] | 16 to 32 (≈ 66.1 to 132 µM) | 32 to 64 (≈ 132 to 264 µM) | –
Cc1ccc(-n2nc(C)cc2C)c(O)c1 [Example 44, 2-(3,5-Dimethyl-1H-pyrazol-1-yl)-5-methylphenol] | ≤ 1 | ≤ 2 | –
Cc1cc(C)n(-c2cccc(C)c2O)n1 [Example 51, 2-(3,5-dimethyl-1H-pyrazol-1-yl)-6-methylphenol] | – | 32 to 64 (≈ 158 to 316 µM) | < 50
Cc1ccc(O)c(-n2nc(C)cc2C)c1 [Example 49, 2-(3,5-Dimethyl-1H-pyrazol-1-yl)-4-methylphenol] | – | 32 to 64 (≈ 158 to 316 µM) | < 50
Cc1ccnn1-c1ccccc1O [Example 8, 2-(5-Methyl-1H-pyrazol-1-yl)phenol] | 16 to 32 (≈ 91.8 to 184 µM) | > 64 | –
Cc1cc(C)n(-c2ccc(N)cc2O)n1 [Example 31, 5-Amino-2-(3,5-dimethyl-1H-pyrazol-1-yl)phenol] | 2 to 8 (≈ 9.84 to 39.4 µM) | 4 to 16 (≈ 19.7 to 78.7 µM) | –
Cc1ccn(-c2ccccc2O)n1 [Example 7, 2-(3-Methyl-1H-pyrazol-1-yl)phenol] | 16 to 32 (≈ 91.8 to 184 µM) | > 64 | –
Cc1nn(-c2ccc(F)cc2O)c(C)c1C [Example 18, 5-Fluoro-2-(3,4,5-trimethyl-1H-pyrazol-1-yl)phenol] | 2 to 8 (≈ 9.08 to 36.3 µM) | 4 to 16 (≈ 18.2 to 72.6 µM) | –
Cc1cc(C)n(-c2ccc(C(F)(F)F)cc2O)n1 [Example 50, 2-(3,5-Dimethyl-1H-pyrazol-1-yl)-5-trifluoromethylphenol] | 2 to 8 (≈ 7.81 to 31.2 µM) | 4 to 16 (≈ 15.6 to 62.4 µM) | –
Cc1cc(C)n(-c2c(C)cccc2O)n1 [Example 46, 2-(3,5-Dimethyl-1H-pyrazol-1-yl)-3-methylphenol] | – | 32 to 64 (≈ 158 to 316 µM) | < 50
Cc1nn(-c2ccc(Cl)cc2O)c(C)c1C [Example 30, 5-Chloro-2-(3,4,5-trimethyl-1H-pyrazol-1-yl)phenol] | ≤ 1 | ≤ 2 | –
Cc1nn(-c2ccc(C(=O)O)cc2O)c(C)c1C [Example 40, 3-Hydroxy-4-(3,4,5-trimethyl-1H-pyrazol-1-yl)benzene carboxylic acid] | – | 32 to 64 (≈ 130 to 260 µM) | < 50
Cc1cc(C)n(-c2cc(Cl)ccc2O)n1 [Example 11, 4-Chloro-2-(3,5-dimethyl-1H-pyrazol-1-yl)phenol] | 16 to 32 (≈ 71.9 to 144 µM) | 32 to 64 (≈ 144 to 287 µM) | –
Cc1nn(-c2ccccc2O)c(C)c1F [Example 53, 2-(4-Fluoro-3,5-dimethyl-1H-pyrazol-1-yl)phenol] | 2 to 8 (≈ 9.7 to 38.8 µM) | 4 to 16 (≈ 19.4 to 77.6 µM) | –
Cc1cc(C)n(-c2ccc(Br)cc2O)n1 [Example 54, 5-bromo-2-(3,5-dimethyl-1H-pyrazol-1-yl)phenol] | ≤ 1 | ≤ 2 | –
CCc1c(C)nn(-c2ccccc2O)c1C [Example 17, 2-(4-Ethyl-3,5-dimethyl-1H-pyrazol-1-yl)phenol] | ≤ 1 | ≤ 2 | –
Cc1nn(-c2ccc(O)cc2O)c(C)c1Cl [Example 63, 4-(4-chloro-3,5-dimethyl-1H-pyrazol-1-yl)benzene-1,3-diol] | ≤ 1 | ≤ 2 | –
Cc1nn(-c2ccc(F)cc2O)c(C)c1Cl [Example 21, 2-(4-Chloro-3,5-dimethyl-1H-pyrazol-1-yl)-5-fluoro phenol] | ≤ 1 | 4 to 16 (≈ 16.6 to 66.5 µM) | –
CCc1cc(CC)n(-c2ccccc2O)n1 [Example 14, 2-(3,5-Diethyl-1H-pyrazol-1-yl)phenol] | 2 to 8 (≈ 9.25 to 37 µM) | 4 to 16 (≈ 18.5 to 74 µM) | –
Oc1ccccc1-n1nc(C(F)(F)F)cc1C(F)(F)F [Example 6, 2-(3,5-Bistrifluoromethyl-1H-pyrazol-1-yl)phenol] | 16 to 32 (≈ 54 to 108 µM) | > 64 | –
Cc1nn(-c2ccc(C(N)=O)cc2O)c(C)c1Cl [Example 42, 4-(4-Chloro-3,5-dimethyl-1H-pyrazol-1-yl)-3-hydroxybenzamide] | 16 to 32 (≈ 60.2 to 120 µM) | 32 to 64 (≈ 120 to 241 µM) | –
Cc1cc(C)n(-c2ccccc2O)n1 [Example 1, 2-(3,5-Dimethyl-1H-pyrazol-1-yl)phenol] | 2 to 8 (≈ 10.6 to 42.5 µM) | 4 to 16 (≈ 21.3 to 85 µM) | –
Cc1cc(C)n(-c2cc(Cl)c(C)cc2O)n1 [Example 61, 4-chloro-2-(3,5-dimethyl-1H-pyrazol-1-yl)-5-methylphenol] | 16 to 32 (≈ 67.6 to 135 µM) | 16 to 32 (≈ 67.6 to 135 µM) | –
CC(=O)Oc1ccc(-n2nc(C)c(C)c2C)c(O)c1 [Example 59, 3-hydroxy-4-(3,4,5-trimethyl-1H-pyrazol-1-yl)phenyl acetate] | 2 to 8 | 4 to 16 | –
CC(=O)Oc1ccc(-n2nc(C)c(Cl)c2C)c(O)c1 [Example 58, 4-(4-chloro-3,5-dimethyl-1H-pyrazol-1-yl)-3-hydroxyphenyl acetate] | 2 to 8 | ≤ 2 | –
COC(=O)CCc1c(C)nn(-c2ccccc2O)c1C [Example 23, Methyl 3-(1-(2-hydroxyphenyl)-3,5-dimethyl-1H-pyrazol-4-yl)propanoate] | 16 to 32 (≈ 58.3 to 117 µM) | 32 to 64 (≈ 117 to 233 µM) | –
Cc1nn(-c2ccc([N+](=O)[O-])cc2O)c(C)c1C [Example 32, 5-Nitro-2-(3,4,5-trimethyl-1H-pyrazol-1-yl)phenol] | 2 to 8 (≈ 8.09 to 32.4 µM) | 4 to 16 (≈ 16.2 to 64.7 µM) | –

Further lines, with some results ahead:

MIC [1] [µg/mL] | MIC [2] [µg/mL] | SMILES | inhibition of growth at 32 µg/mL [1] [%]
≤ 1 | ≤ 2 | Cc1nn(-c2ccccc2O)c(C)c1C [Example 9, 2-(3,4,5-Trimethyl-1H-pyrazol-1-yl)phenol] | –
2 to 8 (≈ 9.21 to 36.8 µM) | 4 to 16 (≈ 18.4 to 73.6 µM) | CNc1ccc(-n2nc(C)cc2C)c(O)c1 [Example 48, 2-(3,5-Dimethyl-1H-pyrazol-1-yl)-5-methylaminophenol] | –
2 to 8 (≈ 8.58 to 34.3 µM) | 16 to 32 (≈ 68.6 to 137 µM) | Cc1cc(C)n(-c2ccc([N+](=O)[O-])cc2O)n1 [Example 28, 2-(3,5-Dimethyl-1H-pyrazol-1-yl)-5-nitrophenol] | –
≤ 1 | ≤ 2 | Cc1cc(C)n(-c2ccc(Cl)cc2O)n1 [Example 26, 5-Chloro-2-(3,5-dimethyl-1H-pyrazol-1-yl)phenol] | –
– | 32 to 64 (≈ 157 to 315 µM) | Cc1cc(C)n(-c2c(N)cccc2O)n1 [Example 36, 3-Amino-2-(3,5-dimethyl-1H-pyrazol-1-yl)phenol] | < 50
2 to 8 (≈ 9.7 to 38.8 µM) | 4 to 16 (≈ 19.4 to 77.6 µM) | Cc1cc(C)n(-c2ccc(F)cc2O)n1 [Example 25, 2-(3,5-Dimethyl-1H-pyrazol-1-yl)-5-fluorophenol] | –
2 to 8 (≈ 9.21 to 36.8 µM) | 4 to 16 (≈ 18.4 to 73.6 µM) | Cc1nn(-c2ccc(N)cc2O)c(C)c1C [Example 34, 5-Amino-2-(3,4,5-trimethyl-1H-pyrazol-1-yl)phenol] | –
– | > 64 | CC(C)(C)c1cc(N)n(-c2ccccc2O)n1 [Example 10, 2-(5-Amino-3-tert-butyl-1H-pyrazol-1-yl)phenol] | 50 to 80
– | 32 to 64 (≈ 157 to 313 µM) | Cc1cc(C)n(-c2c(O)cccc2O)n1 [Example 43, 2-(3,5-Dimethyl-1H-pyrazol-1-yl)benzene-1,3-diol] | < 50
≤ 1 | 16 to 32 (≈ 65.5 to 131 µM) | CCCCc1c(C)nn(-c2ccccc2O)c1C [Example 24, 2-(4-Butyl-3,5-dimethyl-1H-pyrazol-1-yl)phenol] | –
≤ 1 | ≤ 2 | Cc1nn(-c2ccc(Br)cc2O)c(C)c1C [Example 56, 5-bromo-2-(3,4,5-trimethyl-1H-pyrazol-1-yl)phenol] | –
≤ 1 | ≤ 2 | CCc1ccc(-n2nc(C)cc2C)c(O)c1 [Example 52, 2-(3,5-dimethyl-1H-pyrazol-1-yl)-5-ethylphenol] | –
16 to 32 (≈ 78.3 to 157 µM) | > 64 | Cc1cc(C)n(-c2cc(O)ccc2O)n1 [Example 16, 2-(3,5-Dimethyl-1H-pyrazol-1-yl)benzene-1,4-diol] | –
– | 32 to 64 (≈ 130 to 261 µM) | Cc1nn(-c2ccc(C(N)=O)cc2O)c(C)c1C [Example 41, 3-Hydroxy-4-(3,4,5-trimethyl-1H-pyrazol-1-yl)benzamide] | 50 to 80
2 to 8 (≈ 9.16 to 36.7 µM) | 4 to 16 (≈ 18.3 to 73.3 µM) | Cc1cc(C)n(-c2ccc(CO)cc2O)n1 [Example 47, 2-(3,5-Dimethyl-1H-pyrazol-1-yl)-5-hydroxymethylphenol] | –
2 to 8 (≈ 8.61 to 34.4 µM) | 4 to 16 (≈ 17.2 to 68.9 µM) | Cc1cc(C)n(-c2ccc(C(=O)O)cc2O)n1 [Example 37, 4-(3,5-Dimethyl-1H-pyrazol-1-yl)-3-hydroxybenzene carboxylic acid] | –
≤ 1 | ≤ 2 | Cc1nn(-c2ccc(Br)cc2O)c(C)c1Cl [Example 55, 5-bromo-2-(4-chloro-3,5-dimethyl-1H-pyrazol-1-yl)phenol] | –
